Publication PMC6895180 (Nature Communications, 2019)
Where “and” joins values, the source holds several entries; their conditions need not be identical. Identical values can stand only once. Like-named read-outs stand apart in the source and are kept apart here. Marks after values point to notes of the source that are not given here.

Columns and labels:
[1] = system: T. b. brucei Lister 427WT; test: Drug susceptibility test (resazurin), Lister 427WT; format: cell-based, Trypanosoma brucei brucei; details: Trypanosoma brucei
Procedure: (§1) Drug susceptibility tests with Lister 427WT, TbAT1-KO[48], B48[26] and ISMR1[27] were performed using an assay based on the viability indicator dye resazurin in 96-well plates, each well containing 2 × 10^4 cells. The plates were incubated for 48 h with a doubling dilution series of the test compounds in HMI-9/fetal bovine serum at 37 °C/5% CO2 (23 dilutions starting at 100 µM, except for the pentamidine control (50 µM)), after which resazurin (20 µL of 125 µg mL^−1 resazurin sodium salt solution was added to each well (containing 200 µL of cells and test compound)) was added to each well and the plates incubated for another 24 h. Fluorescence was determined using a FLUOstar Optima (BMG Labtech, Durham, NC) and the results fitted to a sigmoid curve with variable slope using Prism 5.0 or Prism 7.04 (GraphPad, San Diego, CA).

[2] = system: B48: pentamidine, diminazene and melaminophenyl arsenical resistant T. brucei line; test: microbe, parasite or virus in culture; format: cell-based, Trypanosoma brucei brucei; details: for EC50: Trypanosoma brucei
[3] = parameters: method as in earlier work; details: ref 36 (Olsen, D. B. et al.), cited from earlier work
[4] = Cytotoxicity on MRC-5 fibroblasts (resazurin); format: cell-based, human; details: human
Procedure: Cytotoxicity assays were performed on MRC-5SV2 (Sigma-Aldrich/ECACC, catalogue number 84100401) human embryonic lung fibroblasts, which were cultured in minimum essential medium with Earle’s salt medium, supplemented with L-glutamine, NaHCO3 and 5% inactivated foetal calf serum. All cultures and assays were conducted at 37 °C with 5% CO2. Ten microliters of the aqueous compound dilutions were added to 190 µL of MRC-5SV2 (3 × 10^4 cells mL^−1). Cell growth was compared to untreated control wells (100% cell growth) and medium control wells (0% cell growth). After a 3-day incubation, cell viability was assessed fluorimetrically after the addition of 50 μL resazurin per well (final concentration of 10 µg mL^−1). After 4 h at 37 °C, fluorescence was measured (λex 550 nm, λem 590 nm). The results were expressed as percentage reduction in cell growth/viability compared to control wells and an EC50 was determined.

[5] = system: ISMR1: isometamidium-resistant T. brucei cell line; test: microbe, parasite or virus in culture; format: cell-based, Trypanosoma brucei brucei
Procedure: as §1

[6] = system: TbAT1-KO: T. brucei cell line lacking the TbAT1(P2) transporter gene; test: microbe, parasite or virus in culture; format: cell-based, Trypanosoma brucei brucei
Procedure: as §1

T. brucei Squib 427 = test: microbe, parasite or virus in culture; format: cell-based, Trypanosoma brucei brucei; details: for EC50: Trypanosoma brucei
Procedure: as §1
(§2) Susceptibility assays with T. brucei Squib 427[49] or T. b. rhodesiense STIB-900[50] were performed under similar conditions as above, but using 10 concentrations of a 4-fold compound dilution series starting at 64 µM. Trypanosoma brucei Squib 427 was seeded at 1.5 × 10^4 parasites/well and T. b. rhodesiense at 4 × 10^3 parasites per well, followed by the addition of resazurin (final concentration of 10 µg mL^−1) after 24 h (T. brucei) or 6 h (T. b. rhodesiense).

[7] = target: Lister 427WT T. b. brucei; test: Adenosine deaminase susceptibility (drug sensitivity with/without 2 µM deoxycoformycin); format: cell-based, Trypanosoma brucei brucei; details: for EC50: Trypanosoma brucei, Lister 427WT, mean ± SEM, n=3
Procedure: as §1, with “CA). […]” for “CA).”
Adenosine deaminase susceptibility
in the presence or absence of 2 µM 2’-deoxycoformycin. […]

[8] = system: T. b. rhodesiense STIB-900; test: microbe, parasite or virus in culture; format: cell-based, Trypanosoma brucei rhodesiense
Procedure: as §1, §2

[9] = system: Nc1ncnc2c1ncn2[C@@H]1O[C@H](CO)[C@@H](O)[C@H]1O; test: cells, lysate or membranes; details: other: mean ± SEM, n = 3; pH 7.3
Procedure: Non-specific association of radiolabel with the cell pellet was determined using an identical incubation in the presence of saturating (1 mM) unlabelled adenosine.

[10] = substrate: Nc1ncnc2c1ccn2[C@@H]1O[C@H](CO)C[C@H]1O; test: ADKIN assay (phosphorylation by purified recombinant enzyme, HPLC); format: biochemical, Trypanosoma brucei; details: other: first phosphorylation step; mean and SE, n = 3; pH 7.5
Procedure: The T. brucei ADKIN enzyme was diluted in a buffer containing 0.05% (v/v) Tween-20, 50 mM KCl, 0.1 mM dithiothreitol, and 50 mM Tris-HCl, pH 7.5 (dilution buffer), prior to use in the assay. The final assay mixture contained 12.5 ng T. brucei ADKIN, a range between 50 and 1000 µM of nucleoside 9 (or 1000 µM deoxyadenosine in the control reaction), 100 mM KCl, 10 mM MgCl2, 0.5 mM ATP, 5 mM potassium phosphate and 50 mM Tris-HCl, pH 7.5. The assay was incubated at 37 °C for 30 min, and subsequently heated for 2 min at 100 °C to inactivate the enzyme, diluted with 2 volumes of water, centrifuged through a Nanosep 3k Omega filter and mixed 1:1:2 with water and mobile phase. The HPLC analysis was performed on a 2.1 × 150 mm ACE Excel C18 column using a mobile phase composition 4A:76B:20C (see nucleotide pool analysis, Supplementary Information for details). Using these conditions, consecutive samples could be loaded (Supplementary Fig. 12). After 4–5 samples, the column was washed with high percent A (80A:20C) to remove bound ADP and ATP before re-equilibrating the column to original conditions.

Nc1ncnc2c1ccn2[C@@H]1O[C@H](CO)[C@@H](O)[C@H]1O [Compound 6, Tubercidin, reference compound]
EC50 ([1]; mean and SEM, n = 3, read-out: Lister 427 EC50): 150 ± 30 nM | EC50 ([1]; source data, read-out: s427 EC50, AVG): 151 nM | RF (B48) [2]: 28.7* | EC50 ([2]; mean and SEM, n = 3, read-out: B48 EC50): 4300 ± 1300 nM | EC50 ([2]; source data, read-out: B48 EC50, AVG): 4340 nM | acute toxicity in mice ([3]; 20 mg/kg over 14 days): tolerated with no visible signs of toxicity | acute toxicity in mice ([3]; 50 mg/kg): lethal | EC50 at 3 day ([4]; cytotoxicity in human MRC-5 fibroblasts, mean and SEM, read-out: MRC-5 EC50): 2200 ± 700 nM | EC50 at 3 day ([4]; source data, read-out: MRC-5 EC50, Average): 2230 nM | EC50 ([5]; Trypanosoma brucei, mean and SEM, n = 3, read-out: ISMR1 EC50): 1700 ± 500 nM | EC50 ([5]; Trypanosoma brucei, source data, read-out: ISMR1 EC50, AVG): 1670 nM | EC50 ([5]; Trypanosoma brucei, source data, read-out: ISMR1 EC50, single determinations): 2150 nM | RF (ISMR1) ([5]; resistance factor vs Lister 427WT): 11.1** | EC50 ([5]; source data, read-out: ISMR1 EC50, single determinations): 1190 nM | EC50 ([6]; Trypanosoma brucei, read-out: TbAT1-KO EC50, mean and SEM, n = 3): 2610 ± 700 nM | EC50 ([6]; Trypanosoma brucei, read-out: TbAT1-KO EC50, single determinations, source data): 3260 nM | EC50 ([6]; read-out: TbAT1-KO EC50, single determinations, source data): 1950 nM | RF (TbAT1-KO) ([6]; resistance factor: ratio of EC50 of resistant and Lister 427WT): 17.2** | SI (MRC/T.b. brucei) (T. brucei Squib 427): 4 | EC50 (T. brucei Squib 427; Alamar blue cell viability assay, mean and SEM, read-out: T. b. brucei EC50): 480 ± 100 nM | EC50 (T. brucei Squib 427; source data, read-out: T. brucei brucei EC50, Average): 480 nM | effect of adenosine deaminase inhibition (2’-deoxycoformycin) on EC50 [7]: not significantly affected | EC50 ([7]; absence of deoxycoformycin, read-out: T. b. brucei EC50, -Dcf): 220 ± 10 nM | EC50 ([7]; presence of 2 µM deoxycoformycin, read-out: T. b. brucei EC50, +Dcf): 310 ± 70 nM | SI (MRC/T.b. rhodesiense) [8]: 61 | EC50 ([8]; Trypanosoma brucei, RHODESIENSE, Alamar blue cell viability assay, mean and SEM, read-out: T. b. rhodesiense EC50): 36 ± 1 nM | EC50 ([8]; Trypanosoma brucei, RHODESIENSE, source data, read-out: T. brucei rhodesiense EC50, Average): 36 nM | EC50 ([8]; Trypanosoma brucei, RHODESIENSE, source data, read-out: T. brucei rhodesiense EC50, single measurements): 35 nM | EC50 ([8]; source data, read-out: T. brucei rhodesiense EC50, single measurements): 33.2 nM and 39.9 nM

P2 transporter (TbAT1) (Trypanosoma brucei)
Km [9]: 0.53 ± 0.02 µM

B1: T. brucei ADKIN (Trypanosoma brucei brucei TREU927) (protein)
chain: MSSAPLRVYVQCNPLLDVSAHVSDEFLVKYGLERGTAILLSERQKGIFDDIEKMPNVRYVPGGSGLNVARVAQWMQQAYKGKFVTYVGCIADDRYGKVLKEAAEHEGIVMAVEHTTKAGSGACAVCITGKERTLVADLGAANHLSSEHMRSPAVVRAMDESRIFYFSGFTLTVDVNHVLQACRKAREVDGLFMINLSAPFIMQFFSAQLGEVLPYTDIIVANRHEAKEFANMMKWDTDCVEEIARRAVSEVPYTGTKGRVVVFTRDIEPTVIATKDGVETVPVPQLDQDKVIDMNGAGDAFVGGFLSAYAVGKDLRRCCETGHYTAQEVIQQDGCSFPEKPSFSP
Km [10]: 195 ± 24 µM
